Measurements published in publication PMC11677527, “Predicting Pharmacokinetics of Active Constituents in Spatholobi caulis by Using Physiologically Based Pharmacokinetic Models” (Pharmaceuticals, 2024).
Where two headings read alike, the source gives them in different places.

Key:
[1] = Verification pharmacokinetic experiment in rats, SPC 60 g crude drug/kg by gavage, UFLC-MS/MS, DAS 2.0; type: in vivo, rat
Method: To validate the accuracy of PBPK models in predicting the pharmacokinetics of SPC constituents at different oral doses, the pharmacokinetic behavior of these four constituents from SPC in rats were analyzed by UFLC-MS/MS. The parameters were calculated using Drug and Statistics Software version 2.0, and then these validated values (Val.) were used to check the accuracy of the Calc. values and evaluated by FE.
The pharmacokinetic fitting results of rats given 60 g crude drug/kg body weight of SPC by gavage were verified by experiments. The verification experiment was conducted according to our previous pharmacokinetic study. In brief, 1.5 mL suspension of SPC was given to rats by oral administration; 300 μL blood samples from orbital venous at 0.083, 0.25, 0.5, 0.75, 1.0, 1.5, 2, 3, 4, 6, 8, and 12 h were collected and pretreated with heparin sodium. After centrifugation, the plasma samples were obtained and further processed for subsequent detection by UFLC-MS/MS; the detailed analysis method is shown in Supplementary Data (Table S1 and Figure S1). The concentration-time curve of each compound was gained, and the pharmacokinetic parameters were calculated using DAS 2.0 software (DAS 2.0, Mathematical Pharmacology Professional Committee of China, Shanghai, China). The results of these four constituents were compared with the PBPK parameters predicted in rats at an oral dose of 60 g crude drug/kg body weight of SPC.
1. The instrument and analytical conditions of UFLC-MS/MS method
4 constituents (1. 3′-methoxydadizein; 2. 8-O-methylretusin; 3. Daidzin; and 4. […]
The internal standard (IS) carbamazepine with a purity of more than 99 % was purchased from Beijing JK-chemical technology Co. Ltd., (Beijing China). Heparin sodium was gained from Tianjin biochemical pharmaceutical Co. Ltd, (Tianjin, China).
Ammonium acetate of HPLC grade, methanol and acetonitrile of LC-MS grade were purchased from Sigma (LOT# BCBK6717V, sigma-aldrich, Co., MO, USA) and Fisher (Fisher Corp., Fair lawn, NJ, USA) respectively. The experimental ultrapure water was prepared by Millipore Milli-Q ultrapure water preparation apparatus (Millipore Sigma, […]
The detailed information of Shimadzu UFLC-MS/MS 8050 liquid mass system equipped with Nexera X2UFLC liquid chromatography system and 8050 triple quadrupole mass spectrometers with an electrospray ionization source were listed in our previous study. The supporting LabSolution workstation was used for data […]
The separation without superposition of analytes in plasma sample was achieved on a Kinetex® C18 chromatographic column (100mm×2.1mm i.d.; 2.6 μm, 100 Å; Phenomenex, Inc., Torrance, CA, USA) assembled with a Phenomenex p/n AJ0-9000 C18 protection column. The mobile phase was consisted of 0.5 mM ammonium acetate in water (A) and ACN (B). The gradient elution program was selected ultimately as […]
95 % B (18.7–22 min). Column and automatic sampler temperature were set as 30 °C and 4 °C respectively. The flow rate of mobile phase was 0.35 mL/min while sample injection volume was 4 μL.
Multiple reaction monitoring (MRM) of positive or negative modes were used as scanning modes for the analytes and IS. Other essential parameters were successively optimized as: Nebulizing gas flow, 3 L/min; Heating gas flow, 10 L/min; Drying gas flow, 10 L/min; Interface temperature, 300 °C; DL temperature, 250 °C; Interface and detector voltage were each set as 3.0 kV and 1.8 kV. The detection parameters such as retention time (RT), dwell time (DT), quadrupole 1 pre-rod bias (Q1), collision energy […]
Table S1 The retention time and ion equivalent parameters of 4 constituents in rat […]
Constituents Retention Precursor Precursor Product time Pre energy Pre time (min) ion species ion ion (msec) Bias (V) Bias

[2] = design: method as in PMID 34303214; settings: rats, p.o. SPC 30 g crude drug/kg; doses of 1-4: 0.062, 0.11, 0.71, 1.31 mg/kg; cited from earlier work
[3] = Observed pharmacokinetics in rats after oral SPC (previous study); type: in vivo, rat; settings: p.o. SPC
Caco-2 cell monolayer = tested on: Caco-2 cell monolayer; design: method as in PMID 36680806, PMID 26501241; settings: Caco-2 cell monolayer model; cited from earlier work
[4] = compartment model parameters, DAS 2.0, rats p.o. SPC 60 g crude drug/kg, Mean, 5 rats
[5] = statistical moment parameters, DAS 2.0, rats p.o. SPC 60 g crude drug/kg, Mean, 5 rats
[6] = statistical moment parameters, DAS 2.0, rats p.o. SPC 60 g crude drug/kg, Mean, 5 rats, in µg·h²/mL

K10 [1, 4]: 6.671 h⁻¹
K12 [1, 4]: 0.394 h⁻¹
K21 [1, 4]: 0.474 h⁻¹
Ka [1, 4]: 2.056 h⁻¹
Tlag [1, 4]: 0 h
V1/F [1, 4]: 12.043 L/kg
t1/2Ka [1, 4]: 20.246 h
t1/2α [1, 4]: 34.861 h
concentration at 0.083 h ([1]; rat, plasma, oral, time 0.083 h, rats p.o. SPC 60 g crude drug/kg, doses of 1-4: 0.124, 0.22, 1.4, 2.62 mg/kg, 5 rats): 9 ng/mL
concentration at 0.25 h ([1]; rat, plasma, oral, time 0.25 h, rats p.o. SPC 60 g crude drug/kg, doses of 1-4: 0.124, 0.22, 1.4, 2.62 mg/kg, 5 rats): 22.9 ng/mL
concentration at 0.5 h ([1]; rat, plasma, oral, time 0.5 h, rats p.o. SPC 60 g crude drug/kg, doses of 1-4: 0.124, 0.22, 1.4, 2.62 mg/kg, 5 rats): 12.3 ng/mL
concentration at 0.75 h ([1]; rat, plasma, oral, time 0.75 h, rats p.o. SPC 60 g crude drug/kg, doses of 1-4: 0.124, 0.22, 1.4, 2.62 mg/kg, 5 rats): 5.23 ng/mL
concentration at 1 h ([1]; rat, plasma, oral, time 1 h, rats p.o. SPC 60 g crude drug/kg, doses of 1-4: 0.124, 0.22, 1.4, 2.62 mg/kg, 5 rats): 3.33 ng/mL
concentration at 1.5 h ([1]; rat, plasma, oral, time 1.5 h, rats p.o. SPC 60 g crude drug/kg, doses of 1-4: 0.124, 0.22, 1.4, 2.62 mg/kg, 5 rats): 1.97 ng/mL
concentration at 2 h ([1]; rat, plasma, oral, time 2 h, rats p.o. SPC 60 g crude drug/kg, doses of 1-4: 0.124, 0.22, 1.4, 2.62 mg/kg, 5 rats): 0.809 ng/mL
concentration at 3 h ([1]; rat, plasma, oral, time 3 h, rats p.o. SPC 60 g crude drug/kg, doses of 1-4: 0.124, 0.22, 1.4, 2.62 mg/kg, 5 rats): 0.809 ng/mL
concentration at 4 h ([1]; rat, plasma, oral, time 4 h, rats p.o. SPC 60 g crude drug/kg, doses of 1-4: 0.124, 0.22, 1.4, 2.62 mg/kg, 5 rats): 0.409 ng/mL
concentration at 6 h ([1]; rat, plasma, oral, time 6 h, rats p.o. SPC 60 g crude drug/kg, doses of 1-4: 0.124, 0.22, 1.4, 2.62 mg/kg, 5 rats): 0.445 ng/mL
concentration at 8 h ([1]; rat, plasma, oral, time 8 h, rats p.o. SPC 60 g crude drug/kg, doses of 1-4: 0.124, 0.22, 1.4, 2.62 mg/kg, 5 rats): 0.161 ng/mL
AUC(0-t) ([1]; rat, plasma, po, 0.22 mg/kg, compartment model parameters, DAS 2.0, rats p.o. SPC 60 g crude drug/kg, Mean, 5 rats, read-out: AUC(0-t)): 19.8 ng·h/mL
AUC(0-inf) ([1]; rat, plasma, po, 0.22 mg/kg, compartment model parameters, DAS 2.0, rats p.o. SPC 60 g crude drug/kg, Mean, 5 rats, read-out: AUC(0-∞)): 22.4 ng·h/mL
CL/F ([1]; rat, plasma, po, 0.22 mg/kg, compartment model parameters, DAS 2.0, rats p.o. SPC 60 g crude drug/kg, Mean, 5 rats, read-out: CL/F (converted)): 209 mL/min/kg
half-life ([1]; rat, plasma, po, 0.22 mg/kg, compartment model parameters, DAS 2.0, rats p.o. SPC 60 g crude drug/kg, Mean, 5 rats, read-out: t1/2β (converted)): 35.4 h
AUC(0-t) ([1]; rat, plasma, po, 0.22 mg/kg, statistical moment parameters, DAS 2.0, rats p.o. SPC 60 g crude drug/kg, Mean, 5 rats, read-out: AUC(0-t)): 15.3 ng·h/mL
AUC(0-inf) ([1]; rat, plasma, po, 0.22 mg/kg, statistical moment parameters, DAS 2.0, rats p.o. SPC 60 g crude drug/kg, Mean, 5 rats, read-out: AUC(0-∞)): 15.5 ng·h/mL
CL/F ([1]; rat, plasma, po, 0.22 mg/kg, statistical moment parameters, DAS 2.0, rats p.o. SPC 60 g crude drug/kg, Mean, 5 rats, read-out: CLz/F (converted)): 238 mL/min/kg
Cmax ([1]; rat, plasma, po, 0.22 mg/kg, statistical moment parameters, DAS 2.0, rats p.o. SPC 60 g crude drug/kg, Mean, 5 rats, read-out: Cmax): 25.3 ng/mL
MRT last ([1]; rat, plasma, po, 0.22 mg/kg, statistical moment parameters, DAS 2.0, rats p.o. SPC 60 g crude drug/kg, Mean, 5 rats, read-out: MRT(0-t)): 1.01 h
MRT inf ([1]; rat, plasma, po, 0.22 mg/kg, statistical moment parameters, DAS 2.0, rats p.o. SPC 60 g crude drug/kg, Mean, 5 rats, read-out: MRT(0-∞)): 1.3 h
Tmax ([1]; rat, plasma, po, 0.22 mg/kg, statistical moment parameters, DAS 2.0, rats p.o. SPC 60 g crude drug/kg, Mean, 5 rats, read-out: Tmax): 0.25 h
Vd/F ([1]; rat, plasma, po, 0.22 mg/kg, statistical moment parameters, DAS 2.0, rats p.o. SPC 60 g crude drug/kg, Mean, 5 rats, read-out: Vz/F): 22.1 L/kg
half-life ([1]; rat, plasma, po, 0.22 mg/kg, statistical moment parameters, DAS 2.0, rats p.o. SPC 60 g crude drug/kg, Mean, 5 rats, read-out: t1/2z (converted)): 1.07 h
AUC(0-t) ([1]; rat, plasma, po, 2.62 mg/kg, rats, p.o. SPC 60 g crude drug/kg, doses of 1-4: 0.124, 0.22, 1.42, 2.62 mg/kg, n = 5, read-out: AUC0→t Val.): 15.3 ng·h/mL
AUC(0-inf) ([1]; rat, plasma, po, 2.62 mg/kg, rats, p.o. SPC 60 g crude drug/kg, doses of 1-4: 0.124, 0.22, 1.42, 2.62 mg/kg, n = 5, read-out: AUC0→∞ Val.): 15.5 ng·h/mL
Tmax ([1]; rat, plasma, po, rats, p.o. SPC 60 g crude drug/kg, doses of 1-4: 0.124, 0.22, 1.42, 2.62 mg/kg, n = 5, read-out: Tmax Val.): 0.25 h
Cz [1, 5]: 0.107 µg/L
VRT(0-t) [1, 5]: 1.65 h^2
VRT(0-∞) [1, 5]: 3.316 h^2
elimination rate constant [1, 5]: 0.675 h⁻¹
AUMC(0-t) [1, 6]: 15.37
AUMC(0-∞) [1, 6]: 20.163
time of slight secondary absorption peak [3]: 3 h
SMILES: COc1ccc(-c2coc3c(OC)c(O)ccc3c2=O)cc1 [Constituent 2, 8-O-methylretusin]
AUC0→t Obs. [2]: 9.7 ng·h/mL
AUC0→∞ Obs. [2]: 11.5 ng·h/mL
Cmax Obs. [2]: 13.6 ng/mL
Papp (Caco-2 cell monolayer): 24.8 ×10⁻⁶ cm/s
